Laboratory results taken from US10463710B2, “Short synthetic peptide for the treatment and/or prophylaxis of autoimmune and inflammatory disorders” (MacKay Memorial Hospital, priority 2015, dated 2019).

How the values were obtained:
[1] = system: IMQ-induced psoriasis-like skin inflammation; assay: Mouse model of IMQ-induced psoriasis-like skin inflammation; assay type: in vivo, BALB/c mice
Experimental: All experimental procedures were approved by the Mackay Memorial Hospital Animal Care and Uses Committee and conducted according to national animal welfare regulations. Psoriasis-like skin inflammation was created by treating mouse skin with Imiquimod (IMQ) in accordance with the procedures described by van der Fits et al (J Immunol. (2009), 182, 5836-5845). Accordingly, each BALB/c mice (8 weeks old) received a daily topical dose of 62.5 mg of commercially available IMQ cream (5%) on the shaved back and the right ear for 6 consecutive days; whereas the control mice (normal group) were treated with a control cream. For treatment, 7-mer analogue was mixed with IMQ cream to a concentration 100 μM.
Keratinocyte proliferation was determined by 5-bromo-2′-deoxyuridine (BrdU) incorporation. BrdU (Sigma-Aldrich) was reconstituted in DMSO as a stock solution of 80 mM. 10 μl of BrdU mixed with 90 μl of PBS was intraperitoneally injected into each mouse for 24 hr prior to euthanasia. Back skin was fixed overnight in 4% paraformaldehyde and embedded in paraffin for immunohistochemistry.
In this example, the efficacy of the present synthetic peptides of Example 1 on IMQ-induced psoriasis-like skin inflammation was investigated. To this purpose, animals (8-week-old mice) were given a daily topical dose of IMQ cream on the shaved back for six consecutive days, so as to induce psoriasis-like skin inflammation and desquamation (FIG. 1; left panel).
Psoriasis is a disease resulted from abnormal keratinocyte proliferation, thus the effects of the present synthetic peptides on the proliferation of keratinocytes were also monitored in accordance with procedures described in the section of “Materials and Methods”. Results are illustrated in FIG. 2.

[2] = in vitro; assay type: cell-based, murine; conditions: mouse
[3] = system: HOCl-induced skin fibrosis; assay: Mouse model of HOCl-induced systemic sclerosis (skin fibrosis); assay type: in vivo, BALB/c mice
Experimental: Induction of SSc have been successfully established by subcutaneously injection with prooxidative agents (e.g., hypochlorous acid, HOCl) in BALB/c mice every day for 6 weeks (Servettaz A et al., J Immuno. 2009; 182: 5855).
To produce HOCl, 166 μl of NaClO solution (2.6% as active chlorine) was added to 11.1 ml of KH2PO4 solution (100 mM; pH 7.2). The concentration of HOCl was determined by spectrophotometry at 292 nm (molar absorption coefficient 350 M^−1 cm^−1). Female BALB/c mice (6 weeks old) were randomly distributed into experimental and control groups (n=6 per group). A total of 100 μl of HOCl solution mixed with 7-mer vehicle or 7-mer (final concentration 0.2 mM) was injected subcutaneously into the shaved back of the mice, using a 27-gauge needle, every day for 6 wks. Subcutaneous injection of phosphate-buffered saline (PBS) was served as normal control. Mice were euthanized and their skins were harvested, fixed overnight in 4% paraformaldehyde and embedded in paraffin. […]
Approximately 20% skin homogenate was used to determine the levels of soluble collagen. The collagen levels were quantified using a Sircol™ soluble collagen assay (Biocolor Ltd., Newtownabbey) according to the manufacturer's protocols. […] Relative absorbance was measured at 540 nm. […]

[4] = system: LPS-induced arthritis; assay: Rat model of LPS-induced arthritis; assay type: in vivo, Sprague-Dawley rats; conditions: 7-mer 1 mM intraarticular along with LPS, 3 days, FIG. 4
Experimental: In this study, acute arthritis was induced by direct injection of lipopolysaccharide (LPS) into rat joints in accordance with the procedures described by Pan R Y et al (J Virol. (1999) 73, 3410-3417). Briefly, adult (about 10 weeks old) male Sprague-Dawley rats (initial body wt=312±11 g) were anesthetized by an intraperitoneal injection of a Xylazine (10 mg/kg) and then randomly assigned to experimental groups; their right knees were later treated with a single intraarticular injection of 25 μl of 5% hyaluronic acid (HA) containing LPS (2 μg and 10 μg) or LPS+7-mer. 7-mer (10 mM stock) was dissolved in 25 μl of 5% HA to final concentration 1 mM. On day 2, the group LPS+7-mer or LPS+7-mer analogue was further treated with 7-mer by a single intraarticular is injection. On day 3, the knee joints were dissected and fixed in a 4% paraformaldehyde (PFA) solution and then decalcified with Shandon TBD-2 decalcifier (Thermo Scientific, Logan, Utah). The joints were then sectioned mid-sagittally and embedded in paraffin blocks. Sections (5 μm in thickness) were longitudinally cut, and stained with hematoxylin and eosin (H&E).
Rheumatoid arthritis (RA) is a chronic inflammatory disease characterized by an inflammation of the synovium leading to the destruction of joint cartilage and eventually the destruction of joint function. […]

## CC(=O)N[C@@H](CC(=O)O)C(=O)N[C@@H](CC(C)C)C(=O)N[C@@H](Cc1ccc(O)cc1)C(=O)N[C@@H](CCCNC(=N)N)C(=O)N[C@H](C(=O)N[C@@H](CCCNC(=N)N)C(=O)N[C@@H](CO)C(N)=O)C(C)C [7-mer, NH2-Asp-Leu-Tyr-Arg-Val-Arg-Ser-COOH]
[1]; 7-mer topically or via intraperitoneal injection, FIG. 2
  number of BrdU-positive keratinocytes: significantly reduced
[1]; topical cream containing IMQ and 7-mer peptide 100 μM, six consecutive days, FIG. 1
  level of skin inflammation and desquamation: reduced significantly
[2]; Rar264.7 cell viability
  viability at 24 h, 20 μM: 55 ± 3.66%
[2]; Raw264.7 cell viability
  viability at 24 h, 20 μM: 55.7 ± 4.24%
[3]; 7-mer 0.2 mM s.c. with HOCl daily for 6 wks, vs HOCl/vehicle, FIG. 3A
  level of dermal collagen (Masson's trichrome): significant decrease
[3]; 7-mer treated SSc mice, HOCl-treated SSc mice 169.9±7.75, FIG. 3B
  collagen content of skin: 99.0±5.43 μg collagen/mg skin
[4]
  inflammation in the knee (synoviocyte proliferation, leukocyte infiltration, H&E): significantly attenuated
